The test system of one test is PLK-1. Kind of test: qPCR splicing analysis, PLK-1 exon skipping / RNA expression. In kind it is cell-based, human. The conditions noted are these: for PLK-1 RNA expression: HCT116, 24 h, 100, 250, 500 nM. As to the method:
(§1) HCT116 tumor cells were treated with each analogue at 20 times the G150 value (Table 12) for 4 hours and then cellular RNA was isolated and purified for qPCR. Primers were designed to evaluate intron retention or exon skipping, direct responses to splice modulator treatment. Genes evaluated included those involved in splicing regulation (SF3A1, SF3A3, SF3B1, SF3B2), apoptosis (MCL-1L), protein folding (DNAJB1), and cell cycle regulation (AURKA, PLK-1) relative to the unspliced control GAPDH. For alternative splicing regulator (SF2), primers were designed to evaluate gene expression, which changes in response splice modulator treatment for SF2 relative to the unspliced control GAPDH. (−) denotes untreated cells.
Next, we turned our efforts to explore the ability of these analogues to modulate splicing. […] We treated cells for 4 h so that we could evaluate early changes in splicing activity, and then cellular RNA was isolated and purified for analyses by qPCR (FIG. 14). Most importantly, none of the concentrations tested led to significant changes in cell viability, ensuring that changes in gene expression were not due to cell death.
(§2) For these studies, we evaluated the expression of genes involved in splicing regulation (SF3A1, SF3A3, SF3B1, SF3B2), apoptosis (MCL-1L), protein folding (DNAJB1), and cell cycle regulation (AURKA, PLK-1) relative to the unspliced control GAPDH. Primers were designed to evaluate intron retention or exon skipping, direct responses to splice modulator treatment. The master splicing regulator alternative splicing factor (SF2) was also evaluated, with the primers for this gene designed to evaluate overall gene expression, which changes in response to splice modulator treatment.
(§3) From this 4 h study (FIG. 14), a small set of analogs (1, 1b, 1g, 1d, 1e, 1i and 1j) were selected to evaluate if effects on splicing when presented for a longer 24 h period. […] Using identical procedures as that used for 4 h, HCT116 cells were treated with three concentrations (100 nM, 250 nM and 500 nM) of each analog for 24 h. Multiple concentrations were used as a means to check further validate the use of the GI50 concentration in our prior study (FIG. 14). As before, none of the concentrations tested led to significant changes in cell viability over the 24-hour time window, ensuring that changes in gene expression were not due to cell death.
Cells were treated with 1 or 1a-1j in media (McCoy's 5a (Life Technologies) supplemented with 10% FBS, 2 mM L-glutamine, and 100 U mL^−1 of penicillin and 100 μg mL^−1 of streptomycin 0.5% DMSO) for 4 h or 24 h. Untreated cells were considered were used as negative control. Total RNA was isolated using mirVana miRNA isolation kit (Life Technologies). A 1 μg sample of RNA was subjected to DNAseI from a TURBO DNA free kit (Life Technologies). […] The amount of unspliced RNA for different genes was determined using Power SYBR Green PCR master mix (Applied Biosystems) by qPCR using specific primers for each gene. qPCR using 2.5 μM of each primer was performed on 5 ng of the obtained cDNA. qPCR conditions were as follows: 95° C. for 10 min for one cycle, then 95° C. for 10 min for one cycle, then 95° C. for 30 s, 55° C. for 60 s, 72° C. for 60 s, for 40 cycles using the MXPro. Quantification cycle (Cq) values were identified for each sample, and then RNA levels were calculated using 2-ΔΔCT method. […] Namely, all genes explored in this study were evaluated from the same cell cultures. […]
In general terms: Quantitative PCR measures a nucleic acid by following its amplification.

Another test relates to HCT116 tumor cells. As to the kind of experiment: qPCR structure-splicing profile over the gene panel. In kind it is cell-based, human. The conditions noted are these: HCT116, 24 h, 100, 250, 500 nM, compared to 1. As to the method:
as §1, with “analogues” for “each analogue”, “100 nM (light grey), 250 nM (grey), or 500 nM (black)” for “20 times the G150 value (Table 12)”, “24 h” for “4 hours”, “(MCL-1L), and” for “(MCL-1L),”, “(DNAJB1),” for “(DNAJB1), and cell cycle regulation (AURKA, PLK-1)”, “(—)” for “(−)”
as §2, §3
Cells were treated with 1 or 1a-1j in media (McCoy's 5a (Life Technologies) supplemented with 10% FBS, 2 mM L-glutamine, and 100 U mL^−1 of penicillin and 100 μg mL^−1 of streptomycin 0.5% DMSO) for 4 h or 24 h. Untreated cells were considered were used as negative control. Total RNA was isolated using mirVana miRNA isolation kit (Life Technologies). A 1 μg sample of RNA was subjected to DNAseI from a TURBO DNA free kit (Life Technologies). The cDNA was prepared by using SuperScript III reverse transcriptase kit (Life Technologies). The amount of unspliced RNA for different genes was determined using Power SYBR Green PCR master mix (Applied Biosystems) by qPCR using specific primers for each gene. qPCR using 2.5 μM of each primer was performed on 5 ng of the obtained cDNA. qPCR conditions were as follows: 95° C. for 10 min for one cycle, then 95° C. for 10 min for one cycle, then 95° C. for 30 s, 55° C. for 60 s, 72° C. for 60 s, for 40 cycles using the MXPro. Quantification cycle (Cq) values were identified for each sample, and then RNA levels were calculated using 2-ΔΔCT method. GAPDH was used as a control for normalization. At least three replicates were conducted for each compound. Namely, all genes explored in this study were evaluated from the same cell cultures. Here, individual cultures were used for each compound explored and at least three replicates were used for each compound. While experimental variation occurred between the different compound treatments, the levels of the different intron retention, exon skipping or RNA expression were collected from the same cellular material. Statistics were calculated using a standard one-way ANOVA; p values were represented so that * signifies p<0.0001. HCT116 were treated with analogs 1-1j ranging from 0.1-5000 nM for 72 hours, then cell viability was measured using the MTS assay. GI50 values and confidence intervals were calculated using GraphPad (Table 12).

For `CC[C@H](OC)[C@@H](C)[C@H]1O[C@@H]1[C@@H](O)[C@H](C)/C=C/C=C(\C)[C@H]1OC(=O)C[C@H](O)CC[C@@](C)(O)[C@@H](OC(C)=O)/C=C/[C@@H]1C` [Analog 1d, 17S-FD-895], in the test on PLK-1, the “PLK-1 RNA expression” value was “decreased effect at reducing”. For the same compound, the “splicing activity over the genes tested” value with HCT116 tumor cells is “modest switch in gene selectivity”. As for `CC[C@H](OC)[C@@H](C)[C@H]1O[C@@H]1[C@@H](O)[C@H](C)/C=C/C=C(\C)[C@H]1OC(=O)C[C@@H](O)CC[C@@](C)(O)[C@@H](OC(C)=O)/C=C/[C@@H]1C` [Analog 1g, 3S,17S-FD-895], in the test on PLK-1 (HCT116, 4 h, 20 times GI50, qPCR), the “effect on exon 3 inclusion in PLK-1” value is given as “most potent effect”. Also, the “PLK-1 RNA expression” value in the test on PLK-1 was “reduced PLK-1 RNA expression”. Consider `CC[C@H](OC)[C@@H](C)[C@@H]1O[C@H]1[C@@H](O)[C@H](C)/C=C/C=C(\C)[C@H]1OC(=O)C[C@H](O)CC[C@@](C)(O)[C@@H](OC(C)=O)/C=C/[C@@H]1C` [Analog 1i, 17S,18S,19S-FD-895], for which, in the test on PLK-1, the “PLK-1 RNA expression” value is given as “increased the RNA expression relative to negative controls”. Further, in the test with HCT116 tumor cells, the “splicing activity over the genes tested” value is given as “drastic reduction in splicing activity”. Turning to `CC[C@@H](OC)[C@H](C)[C@H]1O[C@@H]1[C@@H](O)[C@H](C)/C=C/C=C(\C)[C@H]1OC(=O)C[C@H](O)CC[C@@](C)(O)[C@@H](OC(C)=O)/C=C/[C@@H]1C` [Analog 1j, 17S,20S,21R-FD-895], the “splicing activity over the genes tested” value in the test on HCT116 tumor cells is on record as “splicing profile comparable to 1i”.

Values taken from patent US12172988B2, “Anticancer and antifungal splice modulators” (priority 2021, dated 2024).
